Measurements as given in patent US11766470B2, “Manufacture, formulation and dosing of apraglutide” (VectivBio AG, priority 2020, dated 2023).
Square brackets hold non-standard residues; d marks the D form. Peptide text beside a SMILES is read from it. ξ: configuration not given here. Ile(3ξ) = CCC(C)[C@H](N)C(=O)O; Thr(3ξ) = CC(O)[C@H](N)C(=O)O; Nle = CCCC[C@H](N)C(=O)O

System: patients with SBS-IF
Assay: Phase 2 placebo-controlled crossover trial in SBS-IF patients (Example 5): urine output, urine sodium, PS volume, oral fluid intake, hydration parameters, plasma L-citrulline, body composition
Format: in vivo, human
Method: The following non-limiting example describes results from a Phase 2 clinical trial in which subjects with SBS-IF were treated with the apraglutide formulations of the present disclosure. This Phase 2 trial investigated the safety and efficacy of 5 and 10 mg apraglutide in patients with SBS-IF.
Eight adult patients with SBS-IF were treated with apraglutide compositions of the present disclosure according to Table 6. Briefly, patients with SBS-IF were administered 5 mg apraglutide of the present disclosure or placebo once a week for four weeks. The patients were then administered 10 mg apraglutide of the present disclosure once a week for four weeks. Additionally, there was a washout period of 6-10 weeks between treatments.
The trial described in Example 5 was a double-blind, crossover, randomized, placebo-controlled, phase 2 trial followed by an additional treatment period in an open-label regimen. Eight adult patients (aged ≥18 to ≤80 years) with SBS-IF were enrolled in the trial. Patient eligibility was assessed during a screening visit. The main inclusion criteria were: Patients with SBS secondary to surgical resection of the small bowel with a jejuno- or ileostomy, at least 6 months since last bowel resection, a fecal output of at least 1500 g/day as recorded within the last 18 months, and PS-infusions≥3 times per week for ≥12 months according to the patient's medical record. Patients were excluded, if they had clinical signs of activity in inflammatory bowel disease, a history of cancer within ≤5 years or an inadequate hepatic, kidney, or heart function. Patients were also excluded, if they had received native GLP-2 or a GLP-2 analogue within the last 3 months.
The procedures during each treatment period were consistent.
Efficacy assessments were performed for each treatment period of 29 days. Patients received a paper diary for recording PS volume administration, urine collections and oral fluid intakes at specific time points. Patients performed home 48-hour urine collections at baseline (day −2 to 1), immediately after first treatment injection (day 1 to 3), and at the end of the treatment period (day 27-29, […] after the fourth administration of the trial drug). Urine was collected by the patient in a urine container with volume markings and 48-hour urine volumes were reported in the diary. After completing the 48-hour collection, patients transferred approximately 100 mL of urine from the container to a sample which was delivered at the next patient visit. The amount of sodium excreted per 48 hours was then calculated as the concentration of sodium in the sample multiplied by the total volume of urine collected. During each urine collection, weekly PS volume and content and daily oral fluid intake were kept constant. Since they were kept constant, increases in urine volume were a sign of increased fluid absorption. […] Patients were to adhere to their drinking menu during each urine collection and the concomitant 48-hour oral fluid intake was reported in the diary during each urine collection.
On day 20-22, patients were informed to record their spontaneous oral fluid intake during 48 hours. This measurement was included to investigate whether increased intestinal absorption was associated with a decrease in their spontaneous oral fluid intake.
Between day 4 and 24, PS volume reductions were allowed if deemed clinically necessary by the investigator. […] PS volume reductions were assessed during day 20-22. Patients returned to their baseline PS volume and content during the end of the treatment urine collection (day 27-29). Concomitant medications including proton-pump inhibitors, loperamide, and opiates were kept unchanged and stable throughout the trial. If necessary, adjustments could be made in the drinking menu and prescribed PS volume and content between treatment periods based on discussions between the patient and the investigator.
Body weight was measured using a levelled platform scale. […]

[1] = 5 mg vs 10 mg, Part A+B, day 1-3 after first injection
[2] = 5 mg vs 10 mg, Part A+B, day 20-22
[3] = 5 mg vs 10 mg, Part A+B, day 27-29
[4] = 5 mg vs 10 mg, Part A+B, end of treatment
[5] = 5 mg vs placebo, Part A+B, day 1-3 after first injection
[6] = 5 mg vs placebo, Part A+B, day 20-22
[7] = 5 mg vs placebo, Part A+B, day 27-29
[8] = 5 mg vs placebo, Part A+B, day 27-29, listed as Apraglutide
[9] = 5 mg vs placebo, Part A+B, end of treatment

Compound: CCCC[C@H](NC(=O)[C@H](CCC(=O)O)NC(=O)[C@H](CC(=O)O)NC(=O)[C@H](CO)NC(=O)[C@H](Cc1ccccc1)NC(=O)[C@H](CO)NC(=O)CNC(=O)[C@H](CC(=O)O)NC(=O)CNC(=O)[C@@H](N)Cc1c[nH]cn1)C(=O)N[C@H](Cc1ccccc1)C(=O)N[C@H](C(=O)N[C@H](C(=O)N[C@@H](CC(C)C)C(=O)N[C@@H](CC(=O)O)C(=O)N[C@@H](CC(C)C)C(=O)N[C@@H](CC(C)C)C(=O)N[C@@H](C)C(=O)N[C@@H](C)C(=O)N[C@@H](CCCNC(=N)N)C(=O)N[C@@H](CC(=O)O)C(=O)N[C@@H](Cc1ccccc1)C(=O)N[C@H](C(=O)N[C@@H](CC(N)=O)C(=O)N[C@@H](Cc1c[nH]c2ccccc12)C(=O)N[C@@H](CC(C)C)C(=O)N[C@H](C(=O)N[C@@H](CCC(N)=O)C(=O)N[C@H](C(=O)N[C@@H](CCCCN)C(=O)N[C@H](C(=O)N[C@H](C(=O)N[C@@H](CC(=O)O)C(N)=O)C(C)O)C(C)CC)C(C)O)C(C)CC)C(C)CC)C(C)CC)C(C)O (stereo partly drawn) [apraglutide, L-histidyl-glycyl-L-aspartyl-glycyl-L-seryl-L-phenylalanyl-L-seryl-L-aspartyl-L-glutamyl-L-norleucyl-D-phenylalanyl-L-threonyl-Lisoleucyl-L-leucyl-L-aspartyl-L-leucyl-L-leucyl-L-alanyl-L-alanyl-L-arginyl-L-aspartyl-L-phenylalanyl-L-isoleucyl-L-asparaginyl-Ltryptophanyl-L-leucyl-L-isoleucyl-L-glutaminyl-L-threonyl-L-lysyl-L-isoleucyl-L-threonyl-Laspartic acid amide] (H-HGDGSFSDE[Nle][dF][Thr(3ξ)][Ile(3ξ)]LDLLAARDF[Ile(3ξ)]NWL[Ile(3ξ)]Q[Thr(3ξ)]K[Ile(3ξ)][Thr(3ξ)]D-NH2)
- Patients with increased relative urine volume output compared to placebo (exceeding 10%) (5 mg): 6 out of 8
- Absolute urine output, adjusted mean change from baseline [1]: −26 (−462 to 409); mL/day
- Relative urine output, adjusted mean change from baseline [1]: −12 (−43 to 19); %
- Urine sodium excretion (%), adjusted mean change from baseline [1]: −43(−149 to 63); %
- Urine sodium excretion, adjusted mean change from baseline [1]: −1 (−22 to 20); mmol/day
- Oral fluid intake, adjusted mean change from baseline [2]: −119 (−396 to 157); mL/day
- PS volume, adjusted mean change from baseline [2]: −380 (−851 to 91); mL/day
- Relative PS volume, adjusted mean change from baseline [2]: −15 (−38 to 9); %
- Relative oral fluid intake, adjusted mean change from baseline [2]: −7 (−17 to 3); %
- Absolute urine output, adjusted mean change from baseline [3]: 84 (−514 to 682); mL/day
- Relative urine output, adjusted mean change from baseline [3]: −14 (−51 to 23); %
- Urine sodium excretion (%), adjusted mean change from baseline [3]: 266 (−266 to 798); %
- Urine sodium excretion, adjusted mean change from baseline [3]: 32 (−37 to 101); mmol/day
- Albumin, adjusted mean change from baseline [4]: 1.0 (−0.8 to 2.9); g/L
- Aldosterone, adjusted mean change from baseline [4]: −151 (−3,570 to 3,268); pmol/L
- Body weight, adjusted mean change from baseline [4]: −0.6 (−2.4 to 1.3); kg
- Bone mineral content, adjusted mean change from baseline [4]: 12 (−57 to 82); g
- CO2 total, adjusted mean change from baseline [4]: 1.0 (−1.4 to 3.4); mmol/L
- Creatinine, adjusted mean change from baseline [4]: 4.6 (−12.3 to 21.5); umol/L
- Fat body mass, adjusted mean change from baseline [4]: −1.44 (−2.92 to 0.04); kg
- Hematocrit, adjusted mean change from baseline [4]: −0.4 (−1.2 to 0.4); vol/fr
- Lean body mass, adjusted mean change from baseline [4]: 0.12 (−3.00 to 3.24); kg
- Plasma L-citrulline, adjusted mean change from baseline [4]: −3.6 (−19.8 to 12.6); μmol/L
- Protein, adjusted mean change from baseline [4]: −0.3 (−4.5 to 3.9); g/L
- Relative body weight, adjusted mean change from baseline [4]: −1 (−4 to 2); %
- Relative bone mineral content, adjusted mean change from baseline [4]: 0 (−3 to 3); %
- Relative fat body mass, adjusted mean change from baseline [4]: −7 (−16 to 1); %
- Relative lean body mass, adjusted mean change from baseline [4]: −0 (−8 to 7); %
- Relative plasma L-citrulline, adjusted mean change from baseline [4]: −23 (−74 to 29); %
- Urea, adjusted mean change from baseline [4]: 0.3 (−1.3 to 1.9); mmol/L
- Fluid composite effect, estimated difference between the two doses (5 mg vs 10 mg, post-hoc, Part A+B): 594
- Absolute urine output, adjusted mean change from baseline [5]: −38 (−456 to 381); mL/day
- Relative urine output, adjusted mean change from baseline [5]: 6 (−24 to 35); %
- Urine sodium excretion (%), adjusted mean change from baseline [5]: 65 ( −36 to 166); %
- Urine sodium excretion, adjusted mean change from baseline [5]: 3 (−17 to 23); mmol/day
- PS volume, adjusted mean change from baseline [6]: −89 (−543 to 366); mL/day
- Relative PS volume, adjusted mean change from baseline [6]: −13 (−36 to 9); %
- Relative oral fluid intake, adjusted mean change from baseline [6]: −9 (−18 to 1); %
- Absolute urine output, adjusted mean change from baseline [7]: 711 (132 to 1,289); mL/day
- Relative urine output, adjusted mean change from baseline [7]: 48 (12 to 84); %
- Urine sodium excretion (%), adjusted mean change from baseline [7]: 166 (−342 to 675); %
- Urine sodium excretion, adjusted mean change from baseline [7]: 56 (−10 to 123); mmol/day
- Absolute urine output, adjusted mean change from baseline [8]: 711 mL/day
- Relative urine output, adjusted mean change from baseline [8]: 48%
- Urine sodium excretion, adjusted mean change from baseline [8]: 56 mmol/day
- Albumin, adjusted mean change from baseline [9]: −0.0 (−1.8 to 1.8); g/L
- Body weight, adjusted mean change from baseline [9]: 1.9 (0.1 to 3.7); kg
- Bone mineral content, adjusted mean change from baseline [9]: −4 (−73 to 66); g
- CO2 total, adjusted mean change from baseline [9]: 0.3 (−2.0 to 2.6); mmol/L
- Creatinine, adjusted mean change from baseline [9]: −9.7(−25.8 to 6.4); umol/L
- Fat body mass, adjusted mean change from baseline [9]: 1.77 (0.29 to 3.24); kg
- Hematocrit, adjusted mean change from baseline [9]: 0.6 (−0.2 to1.4); vol/fr
- Lean body mass, adjusted mean change from baseline [9]: 0.64 (−2.49 to 3.77); kg
- Plasma L-citrulline, adjusted mean change from baseline [9]: 17.6 (2.0 to 33.2); μmol/L
- Protein, adjusted mean change from baseline [9]: −0.4 (−4.2 to 3.4); g/L
